Measured values reported in patent US9113629B2, “4-amino-6-(4-substituted-phenyl)-picolinates and 6-amino-2-(4-substituted-phenyl)-pyrimidine-4-carboxylates and their use as herbicides” (DOW AGROSCIENCES LLC, priority 2013, dated 2015).
Like-named read-outs stand apart in the source and are kept apart here.

Assays:
[1] = test system: Key Broadleaf Weed and Crop Species; assay: Post-emergent Test II herbicidal activity (Table 5); format: in vivo; conditions: post-emergence, 336 h, post-emergent, 14 days after application; for pest or weed control at 70 g/ha: 70 g ai/ha; for pest or weed control at 140 g/ha: 140 g ai/ha
Outline: (§1)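 Spray rates: a highest rate plus ½×, ¼×, ⅛×, 1/16×, all delivered at 187 L/ha to plants at the first–second true leaf stage. Readout is a visual percent injury score at 14 d, where 100 means complete kill.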

[2] = test system: Key Grass and Sedge Weeds as well as Grass Crops; assay: Post-emergent Test II herbicidal activity (Table 6); format: in vivo; conditions: post-emergence, 336 h; for pest or weed control at 70 g/ha: application rate 70 g ai/ha; for pest or weed control at 140 g/ha: application rate 140 g ai/ha
Outline: as §1

[3] = ABUTH: velvetleaf (Abutilon theophrasti), read-out: Visual Growth Reduction (%) 14 Days After Application ABUTH
[4] = AMARE: redroot pigweed (Amaranthus retroflexus), read-out: Visual Growth Reduction (%) 14 Days After Application AMARE
[5] = BRSNN: oilseed-rape, canola (Brassica napus), read-out: Visual Growth Reduction (%) 14 Days After Application BRSNN
[6] = CHEAL: lambsquarters (Chenopodium album), read-out: Visual Growth Reduction (%) 14 Days After Application CHEAL
[7] = EPHHL: wild poinsettia (Euphorbia heterophylla), read-out: Visual Growth Reduction (%) 14 Days After Application EPHHL
[8] = HELAN: sunflower (Helianthus annuus), read-out: Visual Growth Reduction (%) 14 Days After Application HELAN
[9] = VIOTR: wild pansy (Viola tricolor), read-out: Visual Growth Reduction (%) 14 Days After Application VIOTR
[10] = CYPES: yellow nutsedge (Cyperus esculentus), read-out: Visual Growth Reduction (%) 14 Days After Application, CYPES
[11] = DIGSA: crabgrass (Digitaria sanguinalis), read-out: Visual Growth Reduction (%) 14 Days After Application, DIGSA
[12] = ECHCG: barnyardgrass (Echinochloa crus-galli), read-out: Visual Growth Reduction (%) 14 Days After Application, ECHCG
[13] = ORYSA: rice (Oryza sativa), read-out: Visual Growth Reduction (%) 14 Days After Application, ORYSA
[14] = SETFA: giant foxtail (Setaria faberi), read-out: Visual Growth Reduction (%) 14 Days After Application, SETFA
[15] = SORVU: grain sorghum (Sorghum vulgare), read-out: Visual Growth Reduction (%) 14 Days After Application, SORVU
[16] = TRZSS (wheat, Triticum aestivum), read-out: Visual Growth Reduction (%) 14 Days After Application, TRZSS
[17] = ZEAMX: maize, corn (Zea mays), read-out: Visual Growth Reduction (%) 14 Days After Application, ZEAMX

COC(=O)c1nc(-c2cc(F)c(C(F)F)cc2F)c(F)c(N)c1Cl [Compound 176]
85 to 94%: pest or weed control at 70 g/ha [1, 6] | pest or weed control at 140 g/ha [1, 6] | pest or weed control at 70 g/ha [2, 10] | pest or weed control at 70 g/ha [2, 12] | pest or weed control at 140 g/ha [2, 12] | pest or weed control at 70 g/ha [2, 14] | pest or weed control at 140 g/ha [2, 14] | pest or weed control at 140 g/ha [2, 15] | pest or weed control at 140 g/ha [2, 17]
45 to 59%: pest or weed control at 140 g/ha [1, 9] | pest or weed control at 70 g/ha [2, 11] | pest or weed control at 140 g/ha [2, 16]
95 to 100%: pest or weed control at 70 g/ha [1, 3] | pest or weed control at 140 g/ha [1, 3] | pest or weed control at 70 g/ha [1, 4] | pest or weed control at 140 g/ha [1, 4] | pest or weed control at 70 g/ha [1, 5] | pest or weed control at 140 g/ha [1, 5] | pest or weed control at 70 g/ha [1, 7] | pest or weed control at 140 g/ha [1, 7] | pest or weed control at 70 g/ha [1, 8] | pest or weed control at 140 g/ha [1, 8] | pest or weed control at 140 g/ha [2, 10]
0 to 29%: pest or weed control at 70 g/ha [2, 13] | pest or weed control at 140 g/ha [2, 13] | pest or weed control at 70 g/ha [2, 17]
30 to 44%: pest or weed control at 70 g/ha [1, 9] | pest or weed control at 70 g/ha [2, 16]
60 to 74%: pest or weed control at 140 g/ha [2, 11] | pest or weed control at 70 g/ha [2, 15]
135.2 to 136.9 °C: melting point

COC(=O)c1nc(-c2cc(F)c(C(F)F)cc2F)nc(N)c1OC [Compound 193]
60 to 74%: pest or weed control at 70 g/ha [1, 3] | pest or weed control at 70 g/ha [1, 5] | pest or weed control at 140 g/ha [1, 5] | pest or weed control at 70 g/ha [1, 8]
30 to 44%: pest or weed control at 140 g/ha [1, 9] | pest or weed control at 70 g/ha [2, 10] | pest or weed control at 140 g/ha [2, 16]
45 to 59%: pest or weed control at 140 g/ha [2, 10] | pest or weed control at 140 g/ha [2, 14] | pest or weed control at 140 g/ha [2, 15]
75 to 84%: pest or weed control at 140 g/ha [1, 3] | pest or weed control at 70 g/ha [1, 4] | pest or weed control at 140 g/ha [1, 8]
0 to 29%: pest or weed control at 70 g/ha [1, 9] | pest or weed control at 70 g/ha [2, 11] | pest or weed control at 140 g/ha [2, 11] | pest or weed control at 70 g/ha [2, 12] | pest or weed control at 140 g/ha [2, 12] | pest or weed control at 70 g/ha [2, 13] | pest or weed control at 140 g/ha [2, 13] | pest or weed control at 70 g/ha [2, 14] | pest or weed control at 70 g/ha [2, 15] | pest or weed control at 70 g/ha [2, 16] | pest or weed control at 70 g/ha [2, 17] | pest or weed control at 140 g/ha [2, 17]
95 to 100%: pest or weed control at 140 g/ha [1, 4] | pest or weed control at 140 g/ha [1, 6] | pest or weed control at 140 g/ha [1, 7]
85 to 94%: pest or weed control at 70 g/ha [1, 6] | pest or weed control at 70 g/ha [1, 7]
127.9 to 129.2 °C: melting point

C#Cc1ccc(-c2nc(N)c(OC)c(C(=O)O)n2)cc1 [Compound 28]
0 to 29%: pest or weed control at 140 g/ha [1, 3] | pest or weed control at 140 g/ha [1, 5] | pest or weed control at 140 g/ha [1, 9] | pest or weed control at 140 g/ha ([2]; Triticum aestivum, TRZSS (wheat), read-out: Visual Growth Reduction (%) 14 Days After Application, TRZSS) | pest or weed control at 140 g/ha [2, 10] | pest or weed control at 140 g/ha [2, 12] | pest or weed control at 140 g/ha [2, 13] | pest or weed control at 140 g/ha [2, 15]
85 to 94%: pest or weed control at 140 g/ha [1, 8]
45 to 59%: pest or weed control at 140 g/ha [2, 14]
60 to 74%: pest or weed control at 140 g/ha [2, 11] | pest or weed control at 140 g/ha [2, 17]
95 to 100%: pest or weed control at 140 g/ha [1, 4] | pest or weed control at 140 g/ha [1, 6] | pest or weed control at 140 g/ha [1, 7]
170.7 to 171.3 °C: melting point
